Test results published in ChEMBL document CHEMBL1159200, “A new flavonol glycoside gallate ester from Acer okamotoanum and its inhibitory activity against human immunodeficiency virus-1 (HIV-1) integrase” (J Nat Prod, 1998).

These molecules were tested against Human immunodeficiency virus type 1 integrase (Human immunodeficiency virus 1, UniProt Q7ZJM1) (assay: Inhibition of HIV1 recombinant integrase expressed in Escherichia coli).
Sequence of Human immunodeficiency virus type 1 integrase (Q7ZJM1 whole entry): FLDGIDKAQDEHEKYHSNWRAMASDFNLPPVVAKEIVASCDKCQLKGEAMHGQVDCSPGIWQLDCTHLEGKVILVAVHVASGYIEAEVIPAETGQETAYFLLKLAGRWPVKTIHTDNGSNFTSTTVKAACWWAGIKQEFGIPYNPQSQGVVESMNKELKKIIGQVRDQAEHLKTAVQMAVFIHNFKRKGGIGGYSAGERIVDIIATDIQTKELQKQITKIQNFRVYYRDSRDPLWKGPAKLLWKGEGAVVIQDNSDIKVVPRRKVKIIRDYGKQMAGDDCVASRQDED
`O=C(OC[C@H]1O[C@@H](OC(=O)c2cc(O)c(O)c(O)c2)[C@H](OC(=O)c2cc(O)c(O)c(O)c2)[C@@H](O)[C@@H]1O)c1cc(O)c(O)c(O)c1` gave an IC50 of 44.5 µM. Molecule `O=C(OC[C@H]1O[C@@H](OC(=O)c2cc(O)c(O)c(O)c2)[C@H](OC(=O)c2cc(O)c(O)c(O)c2)[C@@H](OC(=O)c2cc(O)c(O)c(O)c2)[C@@H]1OC(=O)c1cc(O)c(O)c(O)c1)c1cc(O)c(O)c(O)c1` [PENTAGALLOYL GLUCOSE] has an IC50 of 29.8 µM. `O=C(O[C@H]1[C@H](Oc2c(-c3ccc(O)c(O)c3)oc3cc(O)cc(O)c3c2=O)O[C@H](CO)[C@H](O)[C@@H]1O)c1cc(O)c(O)c(O)c1` was tested, and the IC50 was 45.3 µM. `O=c1c(O[C@@H]2O[C@H](CO)[C@H](O)[C@H](O)[C@H]2O)c(-c2ccc(O)c(O)c2)oc2cc(O)cc(O)c12` [HYPEROSIDE] was tested, and the IC50 was 139 µM. `O=C(O[C@H]1[C@H](Oc2c(-c3ccc(O)c(O)c3)oc3cc(O)cc(O)c3c2=O)OC[C@H](O)[C@@H]1O)c1cc(O)c(O)c(O)c1` was tested, and the IC50 was 30.9 µM. Molecule `O=C(OC[C@H]1O[C@@H](Oc2c(-c3ccc(O)c(O)c3)oc3cc(O)cc(O)c3c2=O)[C@H](OC(=O)c2cc(O)c(O)c(O)c2)[C@@H](O)[C@H]1O)c1cc(O)c(O)c(O)c1` has an IC50 of 31.5 µM. `C[C@@H]1O[C@@H](Oc2c(-c3ccc(O)c(O)c3)oc3cc(O)cc(O)c3c2=O)[C@H](O)[C@H](O)[C@H]1O` [QUERCITRIN] was tested, and the IC50 was 168 µM. Molecule `O=c1c(O[C@@H]2OC[C@H](O)[C@H](O)[C@H]2O)c(-c2ccc(O)cc2)oc2cc(O)cc(O)c12` has an IC50 greater than 239 µM. In the case of `COC(=O)c1cc(O)c(O)c(O)c1` [GALLIC ACID METHYL ESTER], the IC50 is reported as 155 µM.
